Source: ChEMBL document CHEMBL1136535, “Unexpected inhibition of S-adenosyl-L-homocysteine hydrolase by a guanosine nucleoside” (Bioorg Med Chem Lett, 2003)

Legend:
[1] = target: T1, Adenosylhomocysteinase (Homo sapiens, UniProt P23526); test: Inhibitory activity against S-adenosyl-L-homocysteine hydrolase was determined
[2] = target: T1, Adenosylhomocysteinase; test: Inhibitory activity against S-adenosyl-L-homocysteine hydrolase was determined in synthetic directions
[3] = target: T1, Adenosylhomocysteinase; test: Inhibitory activity against S-adenosyl-L-homocysteine hydrolase was determined in hydrolysis direction

T1 sequence (P23526 whole entry): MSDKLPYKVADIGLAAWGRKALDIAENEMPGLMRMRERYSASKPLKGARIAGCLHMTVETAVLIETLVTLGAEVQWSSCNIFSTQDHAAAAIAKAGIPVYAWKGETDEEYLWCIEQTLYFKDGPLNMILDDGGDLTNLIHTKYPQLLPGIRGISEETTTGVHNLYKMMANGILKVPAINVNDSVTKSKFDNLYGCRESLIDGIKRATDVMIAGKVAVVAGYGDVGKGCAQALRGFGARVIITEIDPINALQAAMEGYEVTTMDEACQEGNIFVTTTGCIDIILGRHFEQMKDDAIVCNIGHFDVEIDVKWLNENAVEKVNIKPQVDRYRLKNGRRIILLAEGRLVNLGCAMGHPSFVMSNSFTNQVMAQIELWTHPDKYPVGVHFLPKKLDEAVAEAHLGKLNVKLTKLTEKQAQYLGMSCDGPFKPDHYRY

| Compound | Ki [1] [µM] | Ki [2] [µM] | Ki [3] [µM] |
| --- | --- | --- | --- |
| OC[C@H]1OC(n2cncc2-c2cc(O)ncn2)[C@H](O)[C@@H]1O (stereo not given in full) | 422 | – | – |
| Nc1nc(O)cc(-c2cncn2C2O[C@H](CO)[C@@H](O)[C@H]2O)n1 (stereo not given in full) | – | 217 | 128 |
| Nc1nc2c(ncn2[C@@H]2O[C@H](CO)[C@@H](O)[C@H]2O)c(=O)[nH]1 [GUANOSINE] | 1470 | – | – |
| OC[C@H]1O[C@@H](n2cnc3c(O)ncnc32)[C@H](O)[C@@H]1O [INOSINE] | 925 | – | – |
